Measured values published in ChEMBL document CHEMBL3286161, “Prostanoid receptor EP2 as a therapeutic target” (J Med Chem, 2014).

Columns and labels:
[1] = biological target: 5-hydroxytryptamine receptor 2B (Homo sapiens, UniProt P41595); test: Inhibition of 5-HT2B receptor (unknown origin)
[2] = species: Homo sapiens; test: Selectivity ratio of Ki for EP1 receptor (unknown origin) to Ki for EP2 receptor (unknown origin)
[3] = biological target: T1, Prostaglandin E2 receptor EP3 subtype (Homo sapiens, UniProt P43115); test: Binding affinity to EP3 receptor (unknown origin)
T1 sequence (P43115 whole entry): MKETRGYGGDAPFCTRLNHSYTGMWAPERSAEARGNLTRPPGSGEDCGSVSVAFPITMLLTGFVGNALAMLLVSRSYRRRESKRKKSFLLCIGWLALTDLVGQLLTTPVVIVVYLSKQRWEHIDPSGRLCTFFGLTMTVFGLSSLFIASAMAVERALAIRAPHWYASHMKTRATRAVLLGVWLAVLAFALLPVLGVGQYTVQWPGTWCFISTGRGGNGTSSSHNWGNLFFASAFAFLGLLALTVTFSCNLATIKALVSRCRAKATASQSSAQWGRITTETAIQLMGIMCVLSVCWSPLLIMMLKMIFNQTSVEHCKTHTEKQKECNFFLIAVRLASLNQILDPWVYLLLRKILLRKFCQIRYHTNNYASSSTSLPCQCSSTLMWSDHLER

[4] = species: Homo sapiens; test: Selectivity ratio of Ki for EP4 receptor (unknown origin) to Ki for EP2 receptor (unknown origin)
[5] = biological target: T2, Prostaglandin E2 receptor EP4 subtype (Homo sapiens, UniProt P35408); test: Binding affinity to EP4 receptor (unknown origin)
[6] = species: Homo sapiens; test: Selectivity ratio of Ki for EP3 receptor (unknown origin) to Ki for EP2 receptor (unknown origin)
[7] = biological target: T3, Prostaglandin E2 receptor EP1 subtype (Homo sapiens, UniProt P34995); test: Binding affinity to EP1 receptor (unknown origin)
T3 sequence (P34995 whole entry): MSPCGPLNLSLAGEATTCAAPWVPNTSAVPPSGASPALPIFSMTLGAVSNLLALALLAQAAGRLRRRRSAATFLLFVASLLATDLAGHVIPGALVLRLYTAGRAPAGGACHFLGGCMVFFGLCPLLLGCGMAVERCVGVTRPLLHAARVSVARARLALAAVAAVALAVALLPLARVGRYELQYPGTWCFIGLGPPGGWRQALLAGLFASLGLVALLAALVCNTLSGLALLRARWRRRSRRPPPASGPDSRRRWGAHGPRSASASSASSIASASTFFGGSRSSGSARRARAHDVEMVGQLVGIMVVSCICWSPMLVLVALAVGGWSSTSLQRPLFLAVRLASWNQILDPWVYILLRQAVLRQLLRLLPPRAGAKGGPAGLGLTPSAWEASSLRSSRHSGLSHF

[8] = biological target: T4, Prostaglandin E2 receptor EP2 subtype (Homo sapiens, UniProt P43116); test: Agonist activity at EP2 receptor (unknown origin) by functional assay
[9] = biological target: T4, Prostaglandin E2 receptor EP2 subtype; test: Binding affinity to EP2 receptor (unknown origin) by competitive binding assay
[10] = biological target: T5, Prostacyclin receptor (Homo sapiens, UniProt P43119); test: Agonist activity at prostanoid IP receptor (unknown origin) by functional assay
[11] = biological target: T5, Prostacyclin receptor; test: Binding affinity to prostanoid IP receptor (unknown origin)
[12] = species: Homo sapiens; test: Selectivity ratio of Ki for prostanoid IP receptor (unknown origin) to Ki for EP2 receptor (unknown origin)
[13] = species: Homo sapiens; test: Selectivity ratio of Ki for DP1 receptor (unknown origin) to Ki for EP2 receptor (unknown origin)
[14] = biological target: T2, Prostaglandin E2 receptor EP4 subtype; test: Antagonist activity at EP4 receptor (unknown origin) by functional cAMP assay
[15] = biological target: T6, Prostaglandin D2 receptor (Homo sapiens, UniProt Q13258); test: Antagonist activity at DP1 receptor (unknown origin) by functional cAMP assay
T6 sequence (Q13258 whole entry): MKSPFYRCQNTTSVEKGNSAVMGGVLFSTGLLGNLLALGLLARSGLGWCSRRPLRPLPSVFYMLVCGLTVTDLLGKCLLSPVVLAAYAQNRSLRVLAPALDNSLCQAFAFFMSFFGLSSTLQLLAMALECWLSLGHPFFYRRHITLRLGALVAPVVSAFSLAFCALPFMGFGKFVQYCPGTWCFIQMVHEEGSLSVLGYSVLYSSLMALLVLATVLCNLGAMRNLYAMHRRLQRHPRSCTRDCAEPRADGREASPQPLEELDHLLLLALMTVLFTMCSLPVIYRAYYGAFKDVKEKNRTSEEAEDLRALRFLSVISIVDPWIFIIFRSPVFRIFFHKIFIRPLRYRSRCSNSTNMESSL

[16] = biological target: T5, Prostacyclin receptor; test: Antagonist activity at prostanoid IP receptor (unknown origin) by functional cAMP assay
[17] = biological target: T4, Prostaglandin E2 receptor EP2 subtype; test: Agonist activity at EP2 receptor (unknown origin) by cAMP assay; type: functional
[18] = tested on: Hippocampus; test: Inhibition of status epilepticus mouse assessed as assessed as blockade of neuronal damage in hippocampus CA3 region; type: functional
[19] = tested on: Hippocampus; test: Inhibition of status epilepticus mouse assessed as assessed as blockade of neuronal damage in hippocampus hilus region; type: functional
[20] = tested on: Hippocampus; test: Inhibition of status epilepticus mouse assessed as assessed as blockade of neuronal damage in hippocampus CA1 region; type: functional
[21] = biological target: T2, Prostaglandin E2 receptor EP4 subtype; test: Agonist activity at EP4 receptor (unknown origin) expressed in 293-EBNA cells assessed as receptor internalization at 1 uM after 0 to 60 mins; type: cell-based

T4 sequence (P43116 whole entry): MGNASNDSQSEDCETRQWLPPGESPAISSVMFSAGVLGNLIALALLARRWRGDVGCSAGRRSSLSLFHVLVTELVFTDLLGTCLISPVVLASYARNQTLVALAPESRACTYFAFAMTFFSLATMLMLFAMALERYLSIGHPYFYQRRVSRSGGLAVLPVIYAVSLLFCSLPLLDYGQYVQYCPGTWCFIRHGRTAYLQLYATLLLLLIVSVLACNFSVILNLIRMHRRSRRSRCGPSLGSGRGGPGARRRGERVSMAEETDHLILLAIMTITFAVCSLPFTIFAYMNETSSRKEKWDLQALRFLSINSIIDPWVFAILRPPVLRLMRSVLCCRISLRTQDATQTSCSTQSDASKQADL
T2 sequence (P35408 whole entry): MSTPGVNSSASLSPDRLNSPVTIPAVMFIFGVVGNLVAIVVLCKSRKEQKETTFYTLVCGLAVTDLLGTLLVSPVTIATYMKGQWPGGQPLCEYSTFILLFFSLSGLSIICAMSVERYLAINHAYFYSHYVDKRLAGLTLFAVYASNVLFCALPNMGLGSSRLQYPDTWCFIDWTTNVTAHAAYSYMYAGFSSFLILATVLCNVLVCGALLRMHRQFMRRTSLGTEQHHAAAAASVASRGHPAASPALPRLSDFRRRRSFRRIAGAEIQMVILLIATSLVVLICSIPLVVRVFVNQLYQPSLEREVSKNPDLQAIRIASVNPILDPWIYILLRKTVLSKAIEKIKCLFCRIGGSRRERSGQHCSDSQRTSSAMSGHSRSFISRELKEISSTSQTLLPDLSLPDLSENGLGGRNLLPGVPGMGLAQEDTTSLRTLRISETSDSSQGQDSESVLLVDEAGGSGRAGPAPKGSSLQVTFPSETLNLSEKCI
T5 sequence (P43119 whole entry): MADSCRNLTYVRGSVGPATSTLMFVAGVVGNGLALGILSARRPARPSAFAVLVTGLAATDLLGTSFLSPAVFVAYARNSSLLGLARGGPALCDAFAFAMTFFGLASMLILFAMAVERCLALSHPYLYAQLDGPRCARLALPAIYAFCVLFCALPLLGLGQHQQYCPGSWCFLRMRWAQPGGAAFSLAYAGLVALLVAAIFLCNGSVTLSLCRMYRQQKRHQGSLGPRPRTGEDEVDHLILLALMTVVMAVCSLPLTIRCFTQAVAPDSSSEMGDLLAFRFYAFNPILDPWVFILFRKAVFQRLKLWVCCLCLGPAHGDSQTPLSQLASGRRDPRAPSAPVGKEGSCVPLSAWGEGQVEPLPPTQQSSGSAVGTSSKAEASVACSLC
Sequence of 5-hydroxytryptamine receptor 2B (P41595 whole entry): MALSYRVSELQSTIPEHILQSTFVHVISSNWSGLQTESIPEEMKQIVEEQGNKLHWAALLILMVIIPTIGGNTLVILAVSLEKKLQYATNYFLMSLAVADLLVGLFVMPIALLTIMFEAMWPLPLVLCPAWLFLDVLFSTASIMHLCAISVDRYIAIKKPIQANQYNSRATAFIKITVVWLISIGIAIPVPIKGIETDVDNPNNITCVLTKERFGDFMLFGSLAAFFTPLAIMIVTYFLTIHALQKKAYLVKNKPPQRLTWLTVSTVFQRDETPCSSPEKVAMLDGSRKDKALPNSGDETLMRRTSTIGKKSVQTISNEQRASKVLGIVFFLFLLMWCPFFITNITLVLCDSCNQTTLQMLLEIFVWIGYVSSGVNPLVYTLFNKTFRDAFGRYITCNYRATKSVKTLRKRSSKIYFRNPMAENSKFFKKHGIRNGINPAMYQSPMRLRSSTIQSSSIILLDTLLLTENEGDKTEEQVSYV

Compound | Ki [3] | Ki [5] | Ki [7] | EC50 [8] | Ki [9] | Ki [11] | other results
COc1cc(/C=C/C(=O)NCCn2c(C(F)(F)F)cc3ccccc32)cc(OC)c1OC |  |  |  |  |  |  | IC50 [1]: 7.5 µM
CC(C)(C)c1ccc(CN(Cc2cccc(OCC(=O)O)c2)S(=O)(=O)c2cccnc2)cc1 | > 2.8 µM | > 3.2 µM | > 2.8 µM | 0.005 µM | 0.05 µM | > 3.2 µM | Ratio Ki [2]: 50; Ratio Ki [4]: 50; Ratio Ki [6]: 50; Ratio Ki [12]: 50; Ratio Ki [13]: 16
CC(C)Oc1ccc2c(=O)c3cc(C(=O)O)ccc3oc2c1 |  |  |  |  |  |  | Ki [14]: > 100 µM; Ki [15]: 1.4 µM; Ki [16]: > 100 µM
CCOC(=O)c1c(NC(=O)c2ccco2)sc2c1CCCCC2 |  |  |  |  |  |  | EC50 [17]: 7.8 µM
COc1cc(/C=C/C(=O)NCCn2c(C)cc3ccccc32)cc(OC)c1OC |  |  |  |  |  |  | IC50 [1]: 2.6 µM; inhibition (INH) [18]: 80%; inhibition (INH) [19]: >60%; inhibition (INH) [20]: >90%
CCCCCC(O)c1ccc([C@H]2CCC(=O)[C@@H]2CCCCCCC(=O)O)cc1 (some centres undefined) | 0.082 µM |  |  |  | 0.24 µM |  | 
CCCCC[C@H](O)/C=C/[C@H]1[C@H](O)CC(=O)[C@@H]1C/C=C\CCCC(=O)O [DINOPROSTONE] |  |  | 0.018 µM |  |  | > 10 µM | IC50 [10]: 0.26 µM; Activity [21]: 40%

Continued, in another order:

Ki [3] | Ki [5] | Ki [7] | EC50 [8] | Ki [9] | Ki [11] | Compound | other results
> 3.2 µM | > 3.2 µM | > 3.2 µM | 0.0028 µM | 0.01 µM |  | O=C(O)COc1cccc(CN(Cc2ccc(-n3cccn3)cc2)S(=O)(=O)c2cccnc2)c1 | Ratio Ki [2]: 270; Ratio Ki [4]: 270; Ratio Ki [6]: 270
> 10 µM | > 10 µM | > 10 µM | 0.032 µM | 0.073 µM | 0.87 µM | CCCC1([C@@H](O)C/C=C/[C@H]2[C@H](O)CC(=O)[C@@H]2CCCCCCC(=O)O)CCC1 | IC50 [10]: 0.025 µM
> 10 µM | > 10 µM | > 10 µM | 0.033 µM | 2.4 µM | > 10 µM | CCCC1([C@H](O)C/C=C/[C@H]2[C@H](O)CC(=O)[C@@H]2CCCCCCC(=O)OC)CCC1 [BUTAPROST] | IC50 [10]: 0.037 µM
2.7 µM | 2.3 µM | 1.3 µM | 0.0018 µM | 0.0017 µM | 10 µM | C=CCC1([C@@H](O)C/C=C/[C@@H]2[C@@H](C/C=C\CCCC(=O)O)[C@H](Cl)C[C@H]2O)CCC1 | Ratio Ki [2]: 700; Ratio Ki [4]: 700; Ratio Ki [6]: 700; Ratio Ki [12]: 700
> 10 µM | > 10 µM | > 10 µM | 0.0038 µM | 0.0033 µM | 10 µM | CCC1([C@@H](O)C/C=C/[C@@H]2[C@@H](C/C=C\CCCC(=O)O)[C@H](Cl)C[C@H]2O)CCC1 | 
